Measurements reported in PubChem BioAssay (NCI).
Where “and” joins values, the source holds several entries; their conditions need not be identical. Equal entries are not always repeated.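 Cells were grown in 96-well plates and exposed to each compound for 48 hours at five concentrations; endpoints were interpolated linearly between bracketing concentrations, or set to the highest concentration if not reached. Abbreviation: GI50, concentration required for 50% inhibition of growth. At the TGI there is no net growth.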

Experiments:
Experiment in all cases: inhibition of tumour cell growth, NCI panel, 48 h
T-47D breast = system: T-47D breast
HCT-116 colon = system: HCT-116 colon
HCC-2998 colon = system: HCC-2998 colon
NCI-H460 lung = system: NCI-H460 lung
SF-539 CNS = system: SF-539 CNS
SN12C renal = system: SN12C renal
SK-MEL-2 melanoma = system: SK-MEL-2 melanoma
SW-620 colon = system: SW-620 colon
SF-268 CNS = system: SF-268 CNS
RXF 393 renal = system: RXF 393 renal

SMILES | GI50 (T-47D breast) | TGI (T-47D breast) | GI50 (HCT-116 colon) | TGI (HCT-116 colon) [µM] | GI50 (HCC-2998 colon) | TGI (HCC-2998 colon) | GI50 (NCI-H460 lung) | TGI (NCI-H460 lung) | GI50 (SF-539 CNS) | TGI (SF-539 CNS) | GI50 (SN12C renal) | TGI (SN12C renal) | GI50 (SK-MEL-2 melanoma) | TGI (SK-MEL-2 melanoma) | GI50 (SW-620 colon) | TGI (SW-620 colon) | GI50 (SF-268 CNS) | TGI (SF-268 CNS) | GI50 (RXF 393 renal) | TGI (RXF 393 renal)
Nc1ncnc2c1c(C(F)(F)F)cn2[C@@H]1O[C@H](CO)[C@@H](O)[C@H]1O | 0.104 µM | 70.8 µM | 0.213 µM | > 100 | 0.633 µM | 12.8 µM | 0.262 µM | > 43.6 µM | 0.642 µM | 2.73 µM | 0.157 µM | > 100 µM | 0.953 µM | 2.79 µM | 0.0644 µM | > 100 µM | 1.19 µM | > 26.3 µM | 0.237 µM | 1.67 µM
CCOC1OCCCC1Br (stereo not drawn) | – | > 100 µM | – | > 100 | – | > 100 µM | – | > 100 µM | – | > 100 µM | – | > 100 µM | – | > 100 µM | – | > 100 µM | – | > 100 µM | – | > 100 µM
COc1ccc(-c2ccc(/C=C/C(=O)NO)cc2)cc1 | 1.47 µM | 5.58 µM | 0.451 µM | 11.4 | 0.662 µM | 7.92 µM | 0.142 µM | 4.46 µM | 0.913 µM | 5.18 µM | 0.864 µM | 10.9 µM | 5.11 µM | 37.6 µM | 0.754 µM | > 100 µM | 0.982 µM | 5.58 µM | 0.554 µM | 3.03 µM
CN(C)CCCNc1nn2c(=O)c3ccccc3nc2c2ccccc12 | 12.7 µM | 33.6 µM | 3.72 µM | 15.7 | 11.6 µM | 26.9 µM | 3.35 µM | 13.6 µM | 3.95 µM | 15.4 µM | 5.95 µM | > 100 µM | 20.1 µM | 43.8 µM | 4.94 µM | 19 µM | 7.25 µM | 37.9 µM | 14.2 µM | 30.6 µM
C[C@]12O[C@H](C[C@]1(O)CO)n1c3ccccc3c3c4c(c5c6ccccc6n2c5c31)CNC4=O | 0.0791 µM and 0.337 µM | 1.55 µM and 2.16 µM | 0.0291 µM and 0.0408 µM | – | 0.33 µM and 0.237 µM | 2.5 µM and 2.96 µM | 0.11 µM and 0.12 µM | 1.63 µM and 1.78 µM | 0.114 µM and 0.0846 µM | 0.889 µM and 0.54 µM | 0.0382 µM and 0.0293 µM | 2.01 µM and 2.35 µM | 0.0196 µM and < 0.0117 µM | 3.73 µM and 1.78 µM | 0.05 µM and 0.0589 µM | > 10 µM and 7.84 µM | 0.209 µM and 0.222 µM | 2.56 µM and 2.86 µM | 0.0385 µM and 0.0189 µM | 0.622 µM and 0.649 µM
Cc1ccc(Cl)cc1Nc1nc(C(F)(F)F)ccc1C(=O)Nc1cccc(C(F)(F)F)c1 | 2.23 µM | 8.95 µM | 2.39 µM | 10.3 | 1.78 µM | 4.46 µM | 2.79 µM | 10.1 µM | 3.95 µM | 14.1 µM | 4.29 µM | 18.7 µM | 2.45 µM | 6.58 µM | 4.55 µM | 19.1 µM | 3.59 µM | 13.8 µM | 2.7 µM | 7.92 µM
CCSc1oc(-c2ccccc2)nc1[P+](c1ccccc1)(c1ccccc1)c1ccccc1 | 0.0686 µM | 1.15 µM | 0.218 µM | 3.42 | 0.418 µM | 2.16 µM | 0.298 µM | 1.08 µM | 0.376 µM | 2.85 µM | 0.298 µM | 1.23 µM | 0.276 µM | 0.866 µM | 0.305 µM | 7.32 µM | 0.331 µM | 4.02 µM | 0.331 µM | 1.93 µM
CC(C)C[C@H](NC(=O)[C@H](CCc1ccccc1)NC(=O)CN1CCOCC1)C(=O)N[C@@H](Cc1ccccc1)C(=O)N[C@@H](CC(C)C)C(=O)[C@@]1(C)CO1 | < 0.0128 µM | 0.028 µM | < 0.01 µM | < 0.0125 | < 0.0118 µM | 0.0227 µM | 0.0235 µM | 0.153 µM | < 0.0133 µM | 0.0367 µM | < 0.0132 µM | 0.0349 µM | 0.0144 µM | 0.0543 µM | < 0.01 µM | – | < 0.01 µM | 0.252 µM | < 0.014 µM | 0.0246 µM
O=C(NCc1cccnc1)/C(=C\c1ccc(Br)cc1)S(=O)(=O)c1ccccc1 | 1.04 µM | 3.12 µM | 0.46 µM | 1.84 | 1.51 µM | 3 µM | 0.714 µM | 2.29 µM | 0.663 µM | 1.61 µM | 0.727 µM | 2.19 µM | 1.43 µM | 3.03 µM | 0.416 µM | 1.85 µM | 1 µM | 2.82 µM | 0.413 µM | 1.42 µM
CCN1CCN(c2nc(NNC(=O)Cc3ccccc3)nc(N3CCN(C(c4ccccc4)c4ccccc4)CC3)n2)CC1 | 1.85 µM | 4.8 µM | 1.72 µM | 3.13 | 1.71 µM | 3.39 µM | 1.89 µM | 3.63 µM | 1.78 µM | 3.24 µM | 1.85 µM | 3.44 µM | 2.1 µM | 4.5 µM | 1.87 µM | 3.69 µM | 2.06 µM | 5.06 µM | 1.92 µM | 4.08 µM
COc1ccc(C(=O)c2cc(OC)c(OC)c(OC)c2)cc1OC(C)=O | 19.9 µM | > 100 µM | 0.0297 µM | > 100 | 0.04 µM | > 100 µM | 0.0379 µM | > 100 µM | < 0.01 µM | 0.0376 µM | 0.0509 µM | > 100 µM | 0.0848 µM | > 100 µM | < 0.0184 µM | > 100 µM | 0.0883 µM | > 100 µM | 0.0391 µM | > 100 µM
CC[C@@]1(O)C(=O)NCc2c1cc1n(c2=O)Cc2cc3ccccc3nc2-1 | 2.63 µM | > 100 µM | 2.75 µM | > 74.2 | 74 µM | > 100 µM | 0.556 µM | > 59.2 µM | 1.71 µM | 11 µM | 2.03 µM | > 32.6 µM | > 100 µM | > 100 µM | 3.39 µM | > 100 µM | 0.706 µM | > 100 µM | 6.11 µM | > 80.6 µM
COc1cc(C)c(C(=O)O[C@H]2[C@H](O[C@H]3[C@@H](O)COC(O[C@H]4C[C@H]5[C@@H]6CC=C7C[C@@H](O)CC[C@]7(C)[C@H]6CC[C@]5(C)[C@H]4[C@H](C)C(=O)CCC(C)C)[C@@H]3OC(C)=O)OC[C@@H](O)[C@@H]2O)c(C)c1 (stereo partly drawn) | 0.0249 µM | 16.7 µM | < 0.01 µM | 2.29 | 2.41 µM | 20.3 µM | < 0.01 µM | 1.74 µM | < 0.01 µM | 0.0137 µM | 10 µM | 25.6 µM | < 0.01 µM | 0.302 µM | < 0.01 µM | 0.183 µM | < 0.01 µM | 2.92 µM | < 0.01 µM | < 0.01 µM
C=C(C=O)C1CC(=O)C(C(=O)OC)[C@@H]2O[C@@](C)(CC2=O)C[C@@H]2OC(=O)[C@]3(O[C@@H]23)[C@@H](C(=O)OC)C1 (stereo partly drawn) | 33.7 µM | > 100 µM | 14.7 µM | 33.6 | 14.4 µM | 30.8 µM | 24.4 µM | 70.8 µM | 18 µM | 61.2 µM | 18.7 µM | 50.4 µM | 15.6 µM | 52.9 µM | 12.2 µM | 47.3 µM | 21.5 µM | 65.9 µM | 9.3 µM | 33.6 µM
C/C(=C\c1ccc(Cl)cc1)C(C)(C)C(=O)O | – | > 100 µM | – | > 100 | – | > 100 µM | – | > 100 µM | – | > 100 µM | – | > 100 µM | – | > 100 µM | – | > 100 µM | – | > 100 µM | – | > 100 µM
CN(C)C[C@H]1CC[C@@H](CN(C)C)C1=O | – | 23.6 µM | – | 15.6 | – | > 37.5 µM | – | 37.8 µM | – | 21.4 µM | – | 15.4 µM | – | 15.4 µM | – | 5.55 µM | – | 25.1 µM | – | 16.8 µM
O=C1c2ccccc2C(=O)c2c1ccc(C(Br)Br)c2[N+](=O)[O-] | 1.63 µM | 3.89 µM | 0.739 µM | 2.19 | 2.08 µM | 4.6 µM | 1.89 µM | 5.09 µM | 1.76 µM | 3.41 µM | 1.83 µM | 3.86 µM | 1.91 µM | 4.09 µM | 0.488 µM | 2.07 µM | 1.57 µM | 3.17 µM | 1.26 µM | 2.72 µM
CC(=O)OCC1OC(OC2C(COC(C)=O)OC(OCCC[S-])C(OC(C)=O)C2OC(C)=O)C(OC(C)=O)C(OC(C)=O)C1OC(C)=O.[Au+].c1ccc(CN2[CH-]N(Cc3ccccc3)C(c3ccccc3)=C2c2ccccc2)cc1 (stereo not drawn) | 3.28 µM | 18.5 µM | 2.72 µM | 10.9 | 3.49 µM | 15.4 µM | 3.45 µM | 12.8 µM | 4.46 µM | 17.6 µM | 3.32 µM | 15 µM | 2.99 µM | 8.92 µM | 3.68 µM | 13.8 µM | 5.2 µM | 24.9 µM | 3.28 µM | 12.3 µM
O=C(O)c1c(O)c2cc(Br)ccc2oc1=O | – | > 100 µM | – | > 100 | – | > 100 µM | – | > 100 µM | – | > 100 µM | – | > 100 µM | – | > 100 µM | – | > 100 µM | – | > 100 µM | – | > 100 µM
COc1ccc(-c2ccc3c(NC(=O)C4CC4)n[nH]c3n2)cc1 | > 25 µM | > 25 µM | > 25 µM | > 25 | > 25 µM | > 25 µM | > 25 µM | > 25 µM | > 25 µM | > 25 µM | > 25 µM | > 25 µM | > 25 µM | > 25 µM | > 25 µM | > 25 µM | 11.5 µM | > 25 µM | 15 µM | > 25 µM
